Measured values published in patent publication US12083141B2, “Treatment of hyperglycemia with solute carrier family 39 member 5 (SLC39A5) inhibitors” (Regeneron Pharmaceuticals, Inc., priority 2019, dated 2024).

How the values were obtained:
[1] = tested on: serine/threonine phosphatase; experiment: Dependence of serine/threonine phosphatase activity on zinc concentration; type: biochemical; details: increased concentrations of zinc
tyrosine phosphatase [2] = experiment: Ex vivo tyrosine phosphatase activity in SLC39A5 loss-of-function mice, diet zinc supplementation; details: high fat diets supplemented with different zinc concentrations, ex vivo assay
[3] = tested on: human hepatoma HepG2 cells; experiment: Zinc activation of LKB1/AMPK and AKT signaling in HepG2 cells; type: cell-based; details: acute, dose dependent
[4] = tested on: serine/threonine phosphatase; experiment: Ex vivo serine/threonine phosphatase activity in SLC39A5 loss-of-function mice, diet zinc supplementation; details: high fat diets supplemented with different zinc concentrations, ex vivo assay
[5] = tested on: human primary hepatocytes; experiment: Zinc activation of LKB1/AMPK and AKT signaling in primary hepatocytes; type: cell-based; details: acute, dose dependent
Method: Liver protein was extracted using RIPA buffer (Cell signaling technology, Cat #9806) with Halt Protease & Phosphatase Inhibitor Cocktail (ThermoFisher Scientific, Cat #78440). Five microgram protein of each sample were separated in NuPAGE 4-12% Bis-Tris protein gel (Invitrogen, Cat #WG1403BOX), and transferred to nitrocellulose membrane using Trans-Blot® Turbo™ Transfer System (BioRad). Blotting was performed using the following Cell Signaling Technology antibodies: Phospho-AMPKα (Thr172) (Cell signaling technology, Cat #2535), AMPKα (Cell signaling technology, Cat #5831), β-Actin (Sigma, Cat #5441), Phospho-AKT (Ser473) (Cell signaling technology, Cat #4060), AKT (Cell signaling technology, Cat #9272), Phospho-LKB1 (Ser428) (Cell signaling technology, Cat #3482), LKB1 (Cell signaling technology, Cat #3050), rabbit IgG conjugated to horseradish peroxidase (HRP) (Cell signaling technology, Cat #7074) and mouse IgG conjugated to HRP (Cell signaling technology, Cat #7076). Blots were developed using SuperSignal West Femto Substrate (ThermoFisher Scientific, Cat #34095). Signals were captured using ImageQuant LAS4000 (GE Healthcare).

mice fed high fat diet = experiment: Zinc supplementation of high fat diet in mice (DIO); type: in vivo; details: for hepatic zinc levels: zinc-supplemented diet
Method: Four groups of 6-week old male mice (16 per group) were fed either normal chow or high fat diets supplemented with different zinc concentrations for either 4 or 6 weeks (FIG. 2A). The levels of zinc were analyzed after 4 weeks (FIGS. 2B and 2C) and after 6 weeks (FIGS. 2D and 2E).

tyrosine phosphatase [6] = experiment: Dependence of tyrosine phosphatase activity on zinc concentration; type: biochemical; details: increased concentrations of zinc

## [Zn] [zinc]
[1]
  serine/threonine phosphatase activity: suppressed the activity
Tyrosine phosphatase [2]
  rescue of tyrosine phosphatase inhibition caused by loss of SLC39A5: did not rescue the inhibition
[3]
  LKB1/AMPK and AKT signaling pathways: acutely activates LKB1/AMPK and AKT signaling pathways in dose dependent manner
[4]
  rescue of serine/threonine phosphatase inhibition caused by loss of SLC39A5: did not rescue the inhibition
[5]
  LKB1/AMPK and AKT signaling pathways: acutely activates LKB1/AMPK and AKT signaling pathways in dose dependent manner
Mice fed high fat diet; high fat diet supplemented with zinc
  fat accumulation in liver (microscopic analysis): reverses fat accumulation in liver
Mice fed high fat diet; high fat diet with increasing diet zinc concentration, 4 or 6 weeks
  intravenous glucose tolerance test, blood glucose: mitigated blood glucose increase mediated by high fat diet
Mice fed high fat diet; high fat diet with increasing diet zinc concentration, effect not statistically significant
  intravenous glucose tolerance test, area under the curve: reduced area under the curve
Mice fed high fat diet; male mice, diets supplemented with different zinc concentrations, 4 and 6 weeks
  serum zinc levels: no significant change
Mice fed high fat diet; male mice, after 4 weeks
  hepatic zinc levels: no significant change
Mice fed high fat diet; male mice, after 6 weeks, correlated with level of zinc in diet
  hepatic zinc levels: statistically significant increase
Tyrosine phosphatase [6]
  tyrosine phosphatase activity: suppressed the activity
